Data from patent US9738610B2, “Indazole derivatives and uses thereof” (Whitehead Institute for Biomedical Research, priority 2012, dated 2017).
Like-named read-outs stand apart in the source and are kept apart here.

Tests used:
[1] = system: C. albicans CaCi-2; test: Secondary single-agent (no-fluconazole) activity assay; format: cell-based, Candida albicans; settings: for IC50: Candida albicans
Procedure, shortened: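 C. albicans CaCi-2 in RPMI synthetic defined medium with 1% Pen/Strep, starting OD600 0.00015, exposed to compound alone (no fluconazole) for 48 h at 37 °C without agitation. Growth read as Alamar Blue fluorescence (1:200 final) after 2 h at room temperature.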

[2] = Plasma protein binding; settings: human, plasma
[3] = system: NIH-3T3 mammalian fibroblasts; test: Counterscreen mammalian cell toxicity assay (fibroblast toxicity); format: cell-based, murine; settings: for IC50: Mus musculus
[4] = system: C. albicans CaCi-8; test: microbe, parasite or virus in culture; format: cell-based, Candida albicans; settings: Candida albicans
Procedure, shortened: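 Hits tested for chemosensitization of the fluconazole-resistant CaCi-8 strain, for inherent antifungal activity without fluconazole, and for mammalian fibroblast toxicity by fluorescence reporter. Geldanamycin plus fluconazole served as positive control; a Saccharomyces assay assigned mechanism to Hsp90, calcineurin or other pathways.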

[5] = PBS solubility; settings: PBS, aqueous buffer
[6] = Plasma stability; settings: % remaining in human plasma after a 5-hour incubation

In the case of `COC(=O)Cn1nc(-c2cccc(OC)c2)c2ccccc21` [Compound I-4, methyl 2-(3-(3-methoxyphenyl)-1H-indazol-1-yl)acetate], the “Dose-dependent activity against C. albicans CaCi-2” value [1] is reported as “inactive”, the IC50 ([1]; CACI2, read-out: Activity without fluconazole IC50 (nM)) is reported as > 26000 nM and the IC50 ([1]; CACI2, read-out: CaCi-2 IC50 without fluconazole) is reported as > 26000 nM. For the same compound, the “Fold Selective* (Anti-target IC50/Target IC50)” value ([1]; activity without fluconazole vs CaCi-2 growth inhibition with fluconazole) was 59, the fraction unbound [2] was 0.05 and the “Dose-dependent activity against murine 3T3 fibroblasts” value [3] was “inactive”. For the same compound, the “Mammalian fibroblast IC50 relative to CaCi-2 IC50 with fluconazole” value [3] was >59-fold, the IC50 ([3]; NIH3T3, read-out: Fibroblast toxicity IC50 (nM)) was > 26000 nM and the IC50 ([3]; NIH3T3, read-out: IC50 in the mammalian fibroblast assay) was > 26000 nM. The “Fold Selective* (Anti-target IC50/Target IC50)” value ([3]; fibroblast toxicity vs CaCi-2 growth inhibition) was 59, the IC50 ([4]; CACI8, read-out: CaCi-8 IC50 with 8 μg/ml fluconazole, Table 12) was 1200 nM and the IC50 ([4]; CACI8, read-out: CaCi-8 growth inhibition IC50 (nM), in the presence of fluconazole) was 1210 nM. For the same compound, the solubility [5] was < 1 µM and the “Plasma Stability” value [6] was “approximately 3%”.
